The target in one experiment is T1, HiBit-BRM fusion protein (Homo sapiens, UniProt P51531).
T1 construct: expressed in transfected cells
In words: HiBiT-BRM cell-based degradation assay (Nano-Glo HiBiT lytic detection, 24 h). The conditions noted are these: HeLa cell line expressing HiBiT-BRM; for DC50: read-out: BRM HiBit Degradation IC50. In short, it runs like this: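 Luminescence from LgBiT complementation quantified remaining HiBiT-BRM in stably expressing HeLa cells after 24 h compound exposure (top final dose 30 μM, 3-fold, 10 points, duplicate). Degradation expressed as percent relative to DMSO and a 2 μM reference degrader.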

The target in experiment [1] is T2, HiBit-BRG1 fusion protein (Homo sapiens, UniProt P51532).
T2 construct: expressed in transfected cells
In words: HiBiT-BRG1 cell-based degradation assay (Nano-Glo HiBiT lytic detection, 24 h). The conditions noted are these: HeLa cell line expressing HiBit-BRG1 and LgBit; for Dmax: read-out: BRG1 HiBit Degradation Maximum (%); for DC50: read-out: BRMG1 HiBit Degradation IC50. In short, it runs like this:
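Luminescence from HiBiT/LgBiT complementation after lytic detection reagent was read following 24 h compound exposure of HeLa cells stably carrying HiBiT-BRG1 plus LgBiT (5000 cells/well). Signal scaled to % degradation using DMSO-treated cells as 0% and cells given 2 μM known BRM/BRG1 degrader as 100%.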

Structures are written as SMILES.

T1 sequence (P51531 whole entry, the tested form may be a part): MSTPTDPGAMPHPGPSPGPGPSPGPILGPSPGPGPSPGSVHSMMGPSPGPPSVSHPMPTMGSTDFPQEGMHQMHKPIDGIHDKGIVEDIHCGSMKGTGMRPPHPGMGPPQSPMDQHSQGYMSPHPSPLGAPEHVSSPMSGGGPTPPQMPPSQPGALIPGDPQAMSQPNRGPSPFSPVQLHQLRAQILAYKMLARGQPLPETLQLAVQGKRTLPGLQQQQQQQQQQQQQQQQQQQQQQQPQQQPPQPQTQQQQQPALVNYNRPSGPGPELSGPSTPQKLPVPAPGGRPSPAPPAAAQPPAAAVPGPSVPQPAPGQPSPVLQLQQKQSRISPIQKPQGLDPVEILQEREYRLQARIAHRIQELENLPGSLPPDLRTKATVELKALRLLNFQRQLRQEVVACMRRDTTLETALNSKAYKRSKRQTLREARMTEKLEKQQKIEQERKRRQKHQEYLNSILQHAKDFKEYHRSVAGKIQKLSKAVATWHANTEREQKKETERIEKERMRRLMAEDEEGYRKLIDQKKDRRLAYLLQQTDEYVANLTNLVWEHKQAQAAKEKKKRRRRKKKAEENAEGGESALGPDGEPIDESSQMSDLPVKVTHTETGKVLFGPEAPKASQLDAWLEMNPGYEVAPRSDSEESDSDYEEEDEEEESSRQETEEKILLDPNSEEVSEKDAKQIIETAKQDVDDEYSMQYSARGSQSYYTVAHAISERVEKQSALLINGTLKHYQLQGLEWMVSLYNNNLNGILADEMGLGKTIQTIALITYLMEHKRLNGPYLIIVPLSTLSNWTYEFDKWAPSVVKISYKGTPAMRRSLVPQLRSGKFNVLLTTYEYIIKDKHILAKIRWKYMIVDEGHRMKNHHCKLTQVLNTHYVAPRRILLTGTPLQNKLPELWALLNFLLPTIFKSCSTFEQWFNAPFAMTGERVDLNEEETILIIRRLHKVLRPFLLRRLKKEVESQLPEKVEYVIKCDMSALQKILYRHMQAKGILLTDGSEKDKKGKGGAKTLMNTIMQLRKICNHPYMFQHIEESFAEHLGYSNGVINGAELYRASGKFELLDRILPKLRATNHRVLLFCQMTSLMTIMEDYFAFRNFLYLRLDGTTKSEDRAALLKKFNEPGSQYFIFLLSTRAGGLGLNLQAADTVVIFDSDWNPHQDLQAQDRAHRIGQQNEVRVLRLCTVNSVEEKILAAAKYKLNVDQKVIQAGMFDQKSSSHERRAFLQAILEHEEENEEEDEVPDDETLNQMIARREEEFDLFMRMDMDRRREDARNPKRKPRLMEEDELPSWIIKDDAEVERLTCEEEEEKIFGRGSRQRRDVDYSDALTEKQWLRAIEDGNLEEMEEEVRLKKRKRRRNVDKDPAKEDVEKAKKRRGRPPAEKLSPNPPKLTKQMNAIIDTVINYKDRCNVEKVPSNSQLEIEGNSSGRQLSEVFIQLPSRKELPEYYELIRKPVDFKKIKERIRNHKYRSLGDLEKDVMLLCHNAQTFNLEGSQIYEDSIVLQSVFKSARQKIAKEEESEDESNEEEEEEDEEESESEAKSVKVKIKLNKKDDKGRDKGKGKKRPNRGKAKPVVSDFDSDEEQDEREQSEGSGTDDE
T2 sequence (P51532 whole entry, the tested form may be a part): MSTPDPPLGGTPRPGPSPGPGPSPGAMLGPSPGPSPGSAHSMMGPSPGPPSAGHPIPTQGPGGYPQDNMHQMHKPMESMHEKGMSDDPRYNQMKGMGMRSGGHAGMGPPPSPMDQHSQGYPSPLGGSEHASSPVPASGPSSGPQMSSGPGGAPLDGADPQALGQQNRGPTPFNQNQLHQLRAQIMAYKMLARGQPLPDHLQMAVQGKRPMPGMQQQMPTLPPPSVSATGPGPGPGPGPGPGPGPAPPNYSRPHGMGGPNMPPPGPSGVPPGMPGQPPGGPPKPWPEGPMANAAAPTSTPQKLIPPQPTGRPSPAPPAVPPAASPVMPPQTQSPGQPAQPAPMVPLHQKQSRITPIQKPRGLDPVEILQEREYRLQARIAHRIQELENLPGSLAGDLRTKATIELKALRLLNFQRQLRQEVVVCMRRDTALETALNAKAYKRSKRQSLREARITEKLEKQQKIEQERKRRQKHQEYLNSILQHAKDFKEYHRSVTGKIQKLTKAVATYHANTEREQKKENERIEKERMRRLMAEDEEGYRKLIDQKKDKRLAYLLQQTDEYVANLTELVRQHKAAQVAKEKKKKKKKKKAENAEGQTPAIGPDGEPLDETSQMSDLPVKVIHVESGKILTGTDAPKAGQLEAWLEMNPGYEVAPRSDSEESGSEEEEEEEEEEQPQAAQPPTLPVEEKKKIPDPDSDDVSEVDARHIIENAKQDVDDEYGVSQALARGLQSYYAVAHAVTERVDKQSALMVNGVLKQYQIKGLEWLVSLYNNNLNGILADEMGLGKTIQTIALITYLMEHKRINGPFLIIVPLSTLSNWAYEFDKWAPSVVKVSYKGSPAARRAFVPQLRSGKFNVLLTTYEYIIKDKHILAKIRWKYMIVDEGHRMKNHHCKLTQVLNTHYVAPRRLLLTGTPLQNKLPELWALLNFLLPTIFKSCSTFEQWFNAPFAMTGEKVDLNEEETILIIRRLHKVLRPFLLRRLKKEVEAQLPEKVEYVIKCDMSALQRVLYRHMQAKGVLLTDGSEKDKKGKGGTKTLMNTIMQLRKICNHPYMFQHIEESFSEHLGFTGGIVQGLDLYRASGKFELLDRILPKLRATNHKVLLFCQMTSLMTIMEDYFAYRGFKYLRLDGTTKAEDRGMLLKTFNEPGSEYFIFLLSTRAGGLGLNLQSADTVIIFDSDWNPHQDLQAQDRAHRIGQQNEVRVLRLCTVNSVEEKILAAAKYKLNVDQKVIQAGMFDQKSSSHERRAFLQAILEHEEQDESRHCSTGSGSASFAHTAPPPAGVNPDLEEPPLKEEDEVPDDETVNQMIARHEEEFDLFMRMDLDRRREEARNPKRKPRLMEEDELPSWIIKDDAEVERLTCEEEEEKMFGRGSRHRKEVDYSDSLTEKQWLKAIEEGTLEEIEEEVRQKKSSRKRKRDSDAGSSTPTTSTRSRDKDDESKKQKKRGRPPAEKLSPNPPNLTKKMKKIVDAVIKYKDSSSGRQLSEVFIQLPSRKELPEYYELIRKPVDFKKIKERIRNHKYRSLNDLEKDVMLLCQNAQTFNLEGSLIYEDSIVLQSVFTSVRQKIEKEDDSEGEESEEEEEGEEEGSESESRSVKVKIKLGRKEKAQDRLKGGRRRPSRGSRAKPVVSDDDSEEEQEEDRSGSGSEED

On to `Cc1ncsc1-c1ccc([C@H](C)NC(=O)[C@@H]2C[C@@H](O)CN2C(=O)[C@@H](c2cc(OCCN3C[C@@H]4[C@H](C3)[C@H]4n3c(C)cc4nnc(-c5ccccc5O)cc43)no2)C(C)C)cc1` [Compound 33, (2S,4R)-4-hydroxy-1-[(2R)-2-(3-{2-[(1R,5S,6S)-6-[3-(2-hydroxyphenyl)-6-methylpyrrolo[3,2-c]pyridazin-5-yl]-3-azabicyclo[3.1.0]hexan-3-yl]ethoxy}-1,2-oxazol-5-yl)-3-methylbutanoyl]-N-[(1S)-1-[4-(4-methyl-1,3-thiazol-5-yl)phenyl]ethyl]pyrrolidine-2-carboxamide], for which the “BRM HiBit Degradation Maximum (%)” value on HiBit-BRM fusion protein is “C (“C” indicates maximum degradation <50%)”. For the same molecule, the Dmax in experiment [1] was less than 50%.
As to `Cc1ncsc1-c1ccc([C@H](C)NC(=O)[C@@H]2C[C@@H](O)CN2C(=O)[C@@H](c2cc(-c3cnc(N4CC[C@H](c5cc6nnc(-c7ccccc7O)cc6n5C5CC5)C4)nc3)no2)C(C)C)cc1` [Compound 34, (2S,4R)-1-((R)-2-(3-(2-((S)-3-(5-cyclopropyl-3-(2-hydroxyphenyl)-5H-pyrrolo[3,2-c]pyridazin-6-yl)pyrrolidin-1-yl)pyrimidin-5-yl)isoxazol-5-yl)-3-methylbutanoyl)-4-hydroxy-N—((S)-1-(4-(4-methylthiazol-5-yl)phenyl)ethyl)pyrrolidine-2-carboxamide], at HiBit-BRM fusion protein, the “BRM HiBit Degradation Maximum (%)” value was “A (“A” indicates maximum degradation ≥75%)” and the DC50 is less than 10 nM. The Dmax in experiment [1] is less than 50%.
As to `Cc1ncsc1-c1ccc([C@H](C)NC(=O)[C@@H]2C[C@@H](O)CN2C(=O)[C@H](c2cc(-c3cnc(N4CC[C@H](c5cc6nnc(-c7ccccc7O)cc6n5C5CC5)C4)nc3)no2)C(C)C)cc1` [Compound 35, (2S,4R)-1-((S)-2-(3-(2-((S)-3-(5-cyclopropyl-3-(2-hydroxyphenyl)-5H-pyrrolo[3,2-c]pyridazin-6-yl)pyrrolidin-1-yl)pyrimidin-5-yl)isoxazol-5-yl)-3-methylbutanoyl)-4-hydroxy-N—((S)-1-(4-(4-methylthiazol-5-yl)phenyl)ethyl)pyrrolidine-2-carboxamide], at HiBit-BRM fusion protein, the “BRM HiBit Degradation Maximum (%)” value was “A (“A” indicates maximum degradation ≥75%)” and the DC50 is more than 100 nM. For the same molecule, the Dmax in experiment [1] is less than 50%.
For `Cc1ncsc1-c1ccc([C@H](C)NC(=O)[C@@H]2C[C@@H](O)CN2C(=O)[C@@H](c2cc(-c3cnc(N4CC[C@@H](c5cc6nnc(-c7ccccc7O)cc6n5C5CC5)C4)nc3)no2)C(C)C)cc1` [Compound 36, (2S,4R)-1-((R)-2-(3-(2-((R)-3-(5-cyclopropyl-3-(2-hydroxyphenyl)-5H-pyrrolo[3,2-c]pyridazin-6-yl)pyrrolidin-1-yl)pyrimidin-5-yl)isoxazol-5-yl)-3-methylbutanoyl)-4-hydroxy-N—((S)-1-(4-(4-methylthiazol-5-yl)phenyl)ethyl)pyrrolidine-2-carboxamide], at HiBit-BRM fusion protein, the “BRM HiBit Degradation Maximum (%)” value is “A (“A” indicates maximum degradation ≥75%)” and the DC50 is less than 10 nM. Besides, in experiment [1], the Dmax was more than 75% and the DC50 was less than 10 nM.
`Cc1ncsc1-c1ccc([C@H](C)NC(=O)[C@@H]2C[C@@H](O)CN2C(=O)[C@H](c2cc(-c3cnc(N4CC[C@@H](c5cc6nnc(-c7ccccc7O)cc6n5C5CC5)C4)nc3)no2)C(C)C)cc1` [Compound 37, (2S,4R)-1-((S)-2-(3-(2-((R)-3-(5-cyclopropyl-3-(2-hydroxyphenyl)-5H-pyrrolo[3,2-c]pyridazin-6-yl)pyrrolidin-1-yl)pyrimidin-5-yl)isoxazol-5-yl)-3-methylbutanoyl)-4-hydroxy-N—((S)-1-(4-(4-methylthiazol-5-yl)phenyl)ethyl)pyrrolidine-2-carboxamide]: on HiBit-BRM fusion protein, the “BRM HiBit Degradation Maximum (%)” value is listed as “A (“A” indicates maximum degradation ≥75%)” and the DC50 is more than 10 nM. Moreover, the Dmax in experiment [1] is less than 50%.
On to `Cc1ncsc1-c1ccc([C@H](C)NC(=O)[C@@H]2C[C@@H](O)CN2C(=O)[C@H](c2cc(-c3ccnc(N4CC[C@H](c5cc6nnc(-c7ccccc7O)cc6n5C5CC5)C4)n3)no2)C(C)C)cc1` [Compound 40], for which, at HiBit-BRM fusion protein, the “BRM HiBit Degradation Maximum (%)” value was “C (“C” indicates maximum degradation <50%)”. In addition, the Dmax in experiment [1] was less than 50%.
On to `Cc1ncsc1-c1ccc([C@H](C)NC(=O)[C@@H]2C[C@@H](O)CN2C(=O)[C@@H](c2cc(-c3ccnc(N4CC[C@H](c5cc6nnc(-c7ccccc7O)cc6n5C5CC5)C4)n3)no2)C(C)C)cc1` [Compound 41], for which, on HiBit-BRM fusion protein, the “BRM HiBit Degradation Maximum (%)” value is “A (“A” indicates maximum degradation ≥75%)” and the DC50 is more than 10 nM. Moreover, the Dmax in experiment [1] was less than 50%.
For the molecule `Cc1ncsc1-c1ccc([C@H](C)NC(=O)[C@@H]2C[C@@H](O)CN2C(=O)[C@H](c2cc(-c3cnc(N4CCC(c5cc6nnc(-c7ccccc7O)cc6n5C5(C)CC5)CC4)nc3)no2)C(C)C)cc1` [Compound 42], at HiBit-BRM fusion protein, the “BRM HiBit Degradation Maximum (%)” value is reported as “B (“B” indicates maximum degradation ≥50%)” and the DC50 was more than 10 nM. In addition, in experiment [1], the Dmax was less than 50%.
With `Cc1ncsc1-c1ccc([C@H](C)NC(=O)[C@@H]2C[C@@H](O)CN2C(=O)[C@@H](c2cc(-c3cnc(N4CCC(c5cc6nnc(-c7ccccc7O)cc6n5C5(C)CC5)CC4)nc3)no2)C(C)C)cc1` [Compound 43], on HiBit-BRM fusion protein, the “BRM HiBit Degradation Maximum (%)” value is “A (“A” indicates maximum degradation ≥75%)” and the DC50 was less than 10 nM. Besides, the Dmax in experiment [1] was less than 50%.
On to `Cc1ncsc1-c1ccc([C@H](C)NC(=O)[C@@H]2C[C@@H](O)CN2C(=O)[C@H](c2cc(-c3cnc(N4CCC(c5cc6nnc(-c7ccccc7O)cc6n5C(C)C)CC4)nc3)no2)C(C)C)cc1` [Compound 44], for which, at HiBit-BRM fusion protein, the “BRM HiBit Degradation Maximum (%)” value is “B (“B” indicates maximum degradation ≥50%)” and the DC50 was less than 10 nM. Moreover, the Dmax in experiment [1] was less than 50%.
Take `Cc1ncsc1-c1ccc([C@H](C)NC(=O)[C@@H]2C[C@@H](O)CN2C(=O)[C@@H](c2cc(-c3cnc(N4CCC(c5cc6nnc(-c7ccccc7O)cc6n5C(C)C)CC4)nc3)no2)C(C)C)cc1` [Compound 45]: on HiBit-BRM fusion protein, the “BRM HiBit Degradation Maximum (%)” value is recorded as “A (“A” indicates maximum degradation ≥75%)” and the DC50 was less than 10 nM. In addition, in experiment [1], the Dmax is more than 75% and the DC50 was less than 10 nM.
Turning to `Cc1ncsc1-c1ccc([C@H](C)NC(=O)[C@@H]2C[C@@H](O)CN2C(=O)[C@@H](c2cc(-c3cnc(N4CCC(c5cc6nnc(-c7ccccc7O)cc6n5C5CCC5)CC4)nc3)no2)C(C)C)cc1` [Compound 46], the “BRM HiBit Degradation Maximum (%)” value at HiBit-BRM fusion protein is “C (“C” indicates maximum degradation <50%)”. In experiment [1], the Dmax was less than 50%.
With `Cc1ncsc1-c1ccc([C@H](C)NC(=O)[C@@H]2C[C@@H](O)CN2C(=O)[C@@H](c2cc(-c3cnc(N4CCC(c5cc6nnc(-c7ccccc7O)cc6n5C5CCC5)CC4)nc3)no2)C(C)C)cc1` [Compound 47], at HiBit-BRM fusion protein, the “BRM HiBit Degradation Maximum (%)” value was “A (“A” indicates maximum degradation ≥75%)” and the DC50 was less than 10 nM. For the same molecule, the “BRG1 HiBit Degradation Maximum (%)” value in experiment [1] is given as “C (“C” indicates maximum degradation <50%)”.
On to `Cc1ncsc1-c1ccc(CNC(=O)[C@@H]2C[C@@H](O)CN2C(=O)[C@@H](c2cc(N3CC4(CC(c5cc6nnc(-c7ccccc7O)cc6n5C5CCC5)C4)C3)no2)C(C)C)cc1` [Compound 48, (2S,4R)-1-((R)-2-(3-(6-(5-cyclobutyl-3-(2-hydroxyphenyl)-5H-pyrrolo[3,2-c]pyridazin-6-yl)-2-azaspiro[3.3]heptan-2-yl)isoxazol-5-yl)-3-methylbutanoyl)-4-hydroxy-N-(4-(4-methylthiazol-5-yl)benzyl)pyrrolidine-2-carboxamide], for which, on HiBit-BRM fusion protein, the “BRM HiBit Degradation Maximum (%)” value is listed as “A (“A” indicates maximum degradation ≥75%)” and the DC50 was more than 10 nM. Further, the Dmax in experiment [1] is less than 50%.
`CC(C)C(C(=O)N1C[C@H](O)C[C@H]1C(=O)N[C@@H](C)c1ccccc1)c1cc(N2CC3(CC(c4cc5nnc(-c6ccccc6O)cc5n4C4CCC4)C3)C2)no1` (stereo partly drawn) [Compound 49, (2S,4R)-1-[2-(3-{6-[5-cyclobutyl-3-(2-hydroxyphenyl)pyrrolo[3,2-c]pyridazin-6-yl]-2-azaspiro[3.3]heptan-2-yl}-1,2-oxazol-5-yl)-3-methylbutanoyl]-4-hydroxy-N-[(1S)-1-phenylethyl]pyrrolidine-2-carboxamide]: on HiBit-BRM fusion protein, the “BRM HiBit Degradation Maximum (%)” value is recorded as “A (“A” indicates maximum degradation ≥75%)” and the DC50 is more than 10 nM. The Dmax in experiment [1] was less than 50%.
The corresponding values for `CC(C)C(C(=O)N1C[C@H](O)C[C@H]1C(=O)NCc1ccc(F)cc1)c1cc(N2CC3(CC(c4cc5nnc(-c6ccccc6O)cc5n4C4CCC4)C3)C2)no1` (stereo partly drawn) [Compound 50, (2S,4R)-1-(2-(3-(6-(5-cyclobutyl-3-(2-hydroxyphenyl)-5H-pyrrolo[3,2-c]pyridazin-6-yl)-2-azaspiro[3.3]heptan-2-yl)isoxazol-5-yl)-3-methylbutanoyl)-N-(4-fluorobenzyl)-4-hydroxypyrrolidine-2-carboxamide] are “A (“A” indicates maximum degradation ≥75%)”, more than 10 nM and less than 50%.
Regarding `CC[C@H](C)NC(=O)[C@@H]1C[C@@H](O)CN1C(=O)C(c1cc(N2CC3(CC(c4cc5nnc(-c6ccccc6O)cc5n4C4CCC4)C3)C2)no1)C(C)C` (stereo partly drawn) [Compound 51, (2S,4R)-N-((S)-sec-butyl)-1-(2-(3-(6-(5-cyclobutyl-3-(2-hydroxyphenyl)-5H-pyrrolo[3,2-c]pyridazin-6-yl)-2-azaspiro[3.3]heptan-2-yl)isoxazol-5-yl)-3-methylbutanoyl)-4-hydroxypyrrolidine-2-carboxamide], on HiBit-BRM fusion protein, the “BRM HiBit Degradation Maximum (%)” value is reported as “A (“A” indicates maximum degradation ≥75%)” and the DC50 is more than 10 nM. The Dmax in experiment [1] was less than 50%.

The record behind these values is patent US20250302832A1, “PYRAZINE DERIVATIVES AND USES THEREOF” (FOGHORN THERAPEUTICS INC., priority 2022, published 2025).
